Measured values from PubChem BioAssay AID2060600 (Molecular Pharmacology Branch, DTP, NCI, 2025).

Test system: 996289-038-R-J1-PDC complex spheroid viability
Assay: Anticancer human tumor 996289-038-R-J1-PDC patient-derived colon adenocarcinoma cell line growth inhibition [CLK]
Details: for IC50: curve of first compound; for viability, T/C: stronger effect = lower value
Procedure, shortened: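 Multi-cell-type spheroids combined patient-derived tumor cells with HUVEC endothelial cells and human mesenchymal stem cells. Paired agents were dosed in half-log steps down from about clinical Cmax, or from 10 microM where Cmax was unknown.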
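Note: spheroids exposed to the agents for 7 days before readout.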

SMILES: NC(=O)C(=Cn1cnc(-c2cc(C(F)(F)F)cc(C(F)(F)F)c2)n1)c1cncnc1 + CNC(=O)c1ccc(Nc2nc(OC3CCCC3)c3c(-c4ccc5nc(C)oc5c4)c[nH]c3n2)c(OC)c1
- IC50 (second compound 0.0316 µM): 101 nM
- IC50 (second compound 0.1 µM): 77 nM
- IC50 (second compound 0.316 µM): 40.5 nM
- IC50 (second compound 1 µM): 13 nM
- IC50 (second compound 3.16 µM): < 9.49 nM
- IC50 (second compound 10 µM): < 9.49 nM
- viability, T/C (second compound 0.0316 µM, first compound 0.00949 µM): 98.9%
- viability, T/C (second compound 0.0316 µM, first compound 0.03 µM): 79.4%
- viability, T/C (second compound 0.0316 µM, first compound 0.0949 µM): 50.9%
- viability, T/C (second compound 0.0316 µM, first compound 0.3 µM): 31.2%
- viability, T/C (second compound 0.0316 µM, first compound 0.949 µM): 20%
- viability, T/C (second compound 0.0316 µM, first compound 3 µM): 19.5%
- viability, T/C (second compound 0.1 µM, first compound 0.00949 µM): 93.8%
- viability, T/C (second compound 0.1 µM, first compound 0.03 µM): 71.5%
- viability, T/C (second compound 0.1 µM, first compound 0.0949 µM): 45.8%
- viability, T/C (second compound 0.1 µM, first compound 0.3 µM): 27.6%
- viability, T/C (second compound 0.1 µM, first compound 0.949 µM): 17.7%
- viability, T/C (second compound 0.1 µM, first compound 3 µM): 19%
- viability, T/C (second compound 0.316 µM, first compound 0.00949 µM): 68.9%
- viability, T/C (second compound 0.316 µM, first compound 0.03 µM): 55.2%
- viability, T/C (second compound 0.316 µM, first compound 0.0949 µM): 33.8%
- viability, T/C (second compound 0.316 µM, first compound 0.3 µM): 15%
- viability, T/C (second compound 0.316 µM, first compound 0.949 µM): 13.4%
- viability, T/C (second compound 0.316 µM, first compound 3 µM): 13.8%
- viability, T/C (second compound 1 µM, first compound 0.00949 µM): 53.7%
- viability, T/C (second compound 1 µM, first compound 0.03 µM): 40.1%
- viability, T/C (second compound 1 µM, first compound 0.0949 µM): 19.5%
- viability, T/C (second compound 1 µM, first compound 0.3 µM): 8.6%
- viability, T/C (second compound 1 µM, first compound 0.949 µM): 8.98%
- viability, T/C (second compound 1 µM, first compound 3 µM): 8.12%
- viability, T/C (second compound 3.16 µM, first compound 0.00949 µM): 47.8%
- viability, T/C (second compound 3.16 µM, first compound 0.03 µM): 35.6%
- viability, T/C (second compound 3.16 µM, first compound 0.0949 µM): 15.5%
- viability, T/C (second compound 3.16 µM, first compound 0.3 µM): 7.76%
- viability, T/C (second compound 3.16 µM, first compound 0.949 µM): 6.08%
- viability, T/C (second compound 3.16 µM, first compound 3 µM): 5.36%
- viability, T/C (second compound 10 µM, first compound 0.00949 µM): 44.5%
- viability, T/C (second compound 10 µM, first compound 0.03 µM): 33.8%
- viability, T/C (second compound 10 µM, first compound 0.0949 µM): 12.8%
- viability, T/C (second compound 10 µM, first compound 0.3 µM): 8.08%
- viability, T/C (second compound 10 µM, first compound 0.949 µM): 5.49%
- viability, T/C (second compound 10 µM, first compound 3 µM): 4.93%

SMILES: Nc1ccccc1NC(=O)c1ccc(CNC(=O)OCc2cccnc2)cc1 + CNC(=O)c1ccc(Nc2nc(OC3CCCC3)c3c(-c4ccc5nc(C)oc5c4)c[nH]c3n2)c(OC)c1
- IC50 (second compound 0.0316 µM): 7090 nM
- IC50 (second compound 0.1 µM): 6910 nM
- IC50 (second compound 0.316 µM): 4110 nM
- IC50 (second compound 1 µM): 1700 nM
- IC50 (second compound 3.16 µM): 1880 nM
- IC50 (second compound 10 µM): 1840 nM
- viability, T/C (second compound 0.0316 µM, first compound 0.0316 µM): 118%
- viability, T/C (second compound 0.0316 µM, first compound 0.1 µM): 103%
- viability, T/C (second compound 0.0316 µM, first compound 0.316 µM): 113%
- viability, T/C (second compound 0.0316 µM, first compound 1 µM): 91.8%
- viability, T/C (second compound 0.0316 µM, first compound 3.16 µM): 70.7%
- viability, T/C (second compound 0.0316 µM, first compound 10 µM): 41.3%
- viability, T/C (second compound 0.1 µM, first compound 0.0316 µM): 118%
- viability, T/C (second compound 0.1 µM, first compound 0.1 µM): 110%
- viability, T/C (second compound 0.1 µM, first compound 0.316 µM): 120%
- viability, T/C (second compound 0.1 µM, first compound 1 µM): 97.9%
- viability, T/C (second compound 0.1 µM, first compound 3.16 µM): 71%
- viability, T/C (second compound 0.1 µM, first compound 10 µM): 40.2%
- viability, T/C (second compound 0.316 µM, first compound 0.0316 µM): 85.5%
- viability, T/C (second compound 0.316 µM, first compound 0.1 µM): 82.9%
- viability, T/C (second compound 0.316 µM, first compound 0.316 µM): 74.3%
- viability, T/C (second compound 0.316 µM, first compound 1 µM): 75.5%
- viability, T/C (second compound 0.316 µM, first compound 3.16 µM): 54%
- viability, T/C (second compound 0.316 µM, first compound 10 µM): 31.3%
- viability, T/C (second compound 1 µM, first compound 0.0316 µM): 70.6%
- viability, T/C (second compound 1 µM, first compound 0.1 µM): 70.7%
- viability, T/C (second compound 1 µM, first compound 0.316 µM): 66.7%
- viability, T/C (second compound 1 µM, first compound 1 µM): 59.9%
- viability, T/C (second compound 1 µM, first compound 3.16 µM): 38.8%
- viability, T/C (second compound 1 µM, first compound 10 µM): 12.5%
- viability, T/C (second compound 3.16 µM, first compound 0.0316 µM): 63.8%
- viability, T/C (second compound 3.16 µM, first compound 0.1 µM): 66.1%
- viability, T/C (second compound 3.16 µM, first compound 0.316 µM): 63.8%
- viability, T/C (second compound 3.16 µM, first compound 1 µM): 62.2%
- viability, T/C (second compound 3.16 µM, first compound 3.16 µM): 40.1%
- viability, T/C (second compound 3.16 µM, first compound 10 µM): 8.12%
- viability, T/C (second compound 10 µM, first compound 0.0316 µM): 60.8%
- viability, T/C (second compound 10 µM, first compound 0.1 µM): 63.3%
- viability, T/C (second compound 10 µM, first compound 0.316 µM): 57.2%
- viability, T/C (second compound 10 µM, first compound 1 µM): 62.6%
- viability, T/C (second compound 10 µM, first compound 3.16 µM): 40.3%
- viability, T/C (second compound 10 µM, first compound 10 µM): 7.43%
